# Test results from US12275726B2, “Aurora kinase inhibitors and use thereof” (WIGEN BIOMEDICINE TECHNOLOGY (SHANGHAI) CO., LTD., priority 2019, dated 2025).
# Like-named read-outs stand apart in the source and are kept apart here.
# Key:
# Aurora-A kinase = molecular target: T1, Aurora-A kinase (Homo sapiens, UniProt O14965); assay: Caliper Mobility Shift assay for inhibitory activity against aurora kinase (Aurora-A); assay type: biochemical; conditions: FAM-labeled polypeptide substrate, 25° C.
# T1 sequence (O14965 1-403): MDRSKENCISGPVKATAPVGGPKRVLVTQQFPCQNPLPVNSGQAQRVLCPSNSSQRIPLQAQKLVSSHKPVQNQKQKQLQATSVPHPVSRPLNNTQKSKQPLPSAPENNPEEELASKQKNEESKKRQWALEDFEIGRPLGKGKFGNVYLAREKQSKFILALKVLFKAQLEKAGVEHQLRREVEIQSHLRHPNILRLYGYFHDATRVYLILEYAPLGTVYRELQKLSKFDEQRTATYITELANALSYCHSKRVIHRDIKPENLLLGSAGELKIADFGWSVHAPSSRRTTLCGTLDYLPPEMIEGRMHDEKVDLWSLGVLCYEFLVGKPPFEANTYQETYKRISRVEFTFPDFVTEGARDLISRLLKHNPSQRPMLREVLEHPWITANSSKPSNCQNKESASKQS
# Experimental: (§1) The compounds were each subjected to gradient dilution from 10 μM to obtain a total of 10 concentrations. After the enzyme and kinase reaction solution (20 mM HEPES, pH 7.5, 0.01% Triton X-100) were mixed, the gradiently diluted compound was added. The mixture was incubate at room temperature for 10 min to allow the compound and enzyme to bind well. Then, FAM-labeled polypeptide was added as a substrate to carry out a kinase reaction at 25° C., and after a certain time, a stop solution was added.
# [1] = test system: Human lung cancer H69 cells graft tumors; assay: Anti-tumor activity in nude mice bearing H69 graft tumors; assay type: in vivo; conditions: for in vivo anti-tumor activity compared with the positive control LY-3295668: 20 mg/kg bid*21, H69 graft tumors in nude mice, statement in words; for Anti-tumor effect: 20 mg/kg, bid*21, intragastric, suspension in 0.5% CMC-Na, NCI-H69 graft tumors in nude mice
# Experimental: 1×10^7 H69 cells were injected into the right dorsal side of each nude mouse, and the animals were randomly grouped for administration after tumors grew to 150 mm^3. […] On Tuesday and Thursday each week, tumor volumes and body weight of mice were measured, and the nude mice were sacrificed on day 21 of administration.
# Aurora-B kinase = Aurora-B kinase (Homo sapiens, UniProt Q96GD4); assay: Caliper Mobility Shift assay for inhibitory activity against aurora kinase (Aurora-B); assay type: biochemical; conditions: FAM-labeled polypeptide substrate, 25° C.
# Aurora-B kinase, sequence (Q96GD4 whole entry): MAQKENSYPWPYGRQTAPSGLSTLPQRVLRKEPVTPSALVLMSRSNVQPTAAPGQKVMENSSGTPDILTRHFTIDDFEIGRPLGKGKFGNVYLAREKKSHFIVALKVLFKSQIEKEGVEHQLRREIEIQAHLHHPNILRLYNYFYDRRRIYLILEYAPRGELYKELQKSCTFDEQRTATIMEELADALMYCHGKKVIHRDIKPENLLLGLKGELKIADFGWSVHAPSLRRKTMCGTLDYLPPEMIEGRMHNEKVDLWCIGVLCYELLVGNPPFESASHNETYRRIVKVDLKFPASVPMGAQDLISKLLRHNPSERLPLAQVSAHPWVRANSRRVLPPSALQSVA
# Experimental: as §1
# [2] = test system: human small cell lung cancer H69 cells; assay: Anti-proliferation activity against H69 cells (ATP content, 72 h); assay type: cell-based
# Experimental: Tumor cells (human small cell lung cancer H69 cells) in logarithmic growth phase were seeded into a 384-well culture plate at 4×10^3 cells per well, 50 μL of medium was added to each well, and the mixtures were cultured overnight in a 37° C./5% CO2 incubator. After the cells adhered to the wall, the test compounds and the positive control drug at proper concentrations were each added, and five samples with different concentrations were prepared. A blank group was taken as a negative control group, and the resulting mixtures were cultured in an incubator for 72 h. 50 μL of CTL plus was then added to each well, and the number of cells was evaluated by measuring ATP content in the cells.
Structure (SMILES),IC50 (Aurora-A kinase) [nM],IC50 (Aurora-B kinase) [nM],"IC50 ([2]; Homo sapiens, NCI-H69, 72 h) [nM]",IC50 [2] [nM],in vivo anti-tumor activity compared with the positive control LY-3295668 [1],Anti-tumor effect [1] [% shrinking]
"CCC1CC(Cc2nc(Nc3nccs3)ccc2F)(C(=O)O)CCN1Cc1cccc(Cl)c1F (centres unmarked) [Compound 5, 1-(3-chloro-2-fluorobenzyl)-2-ethyl-4-((3-fluoro-6-(thiazol-2-ylamino)pyridin-2-yl)methyl)piperidine-4-carboxylic acid]",0.82,140,,33,,9
"CCOCC1CC(Cc2nc(Nc3nccs3)ccc2F)(C(=O)O)CCN1Cc1cccc(Cl)c1F (centres unmarked) [Compound 7, 1-(3-chloro-2-fluorobenzyl)-2-(ethoxymethyl)-4-((3-fluoro-6-(thiazol-2-ylamino)pyridin-2-yl)methyl)piperidine-4-carboxylic acid]",0.74,286,52,,,
"O=C(O)C1(Cc2nc(Nc3nccs3)ccc2F)CCN(Cc2cccc(Cl)c2F)C(CF)C1 (centres unmarked) [Compound 11, 1-(3-chloro-2-fluorobenzyl)-4-((3-fluoro-6-(thiazol-2-ylamino)pyridin-2-yl)methyl)-2-(fluoromethyl)piperidine-4-carboxylic acid]",2.4,128,19,,,
"CCC1CC(Cc2nc(Nc3cc(C)[nH]n3)ccc2F)(C(=O)O)CCN1Cc1cccc(Cl)c1F (centres unmarked) [Compound 19, 1-(3-chloro-2-fluorobenzyl)-2-ethyl-4-((3-fluoro-6-((5-methyl-1H-pyrazol-3-yl)amino)pyridin-2-yl)methyl)piperidine-4-carboxylic acid]",3.1,> 3000,219,,,
"COCC1CC(Cc2nc(Nc3cc(C)[nH]n3)ccc2F)(C(=O)O)CCN1Cc1cccc(Cl)c1F (centres unmarked) [Compound 25, 1-(3-chloro-2-fluorobenzyl)-4-((3-fluoro-6-((5-methyl-1H-pyrazol-3-yl)amino)pyridin-2-yl)methyl)-2-(methoxymethyl)piperidine-4-carboxylic acid]",0.78,> 3000,98,,,
"CCC1CC(Cc2nc(Nc3nccs3)ccc2F)(C(=O)O)CCN1Cc1cccc(Cl)c1F (centres unmarked) [Compound 29, 1-(3-chloro-2-fluorobenzyl)-2-ethyl-4-((3-fluoro-6-(thiazol-2-ylamino)pyridin-2-yl)methyl)piperidine-4-carboxylic acid]",1.3,90,24,,,

# Stronger by IC50 (Aurora-A kinase), values ahead:
IC50 (Aurora-A kinase) [nM],IC50 (Aurora-B kinase) [nM],"IC50 ([2]; Homo sapiens, NCI-H69, 72 h) [nM]",IC50 [2] [nM],Structure (SMILES),in vivo anti-tumor activity compared with the positive control LY-3295668 [1],Anti-tumor effect [1] [% shrinking]
0.53,148,11,,"O=C(O)C1(Cc2nc(Nc3nccs3)ccc2F)CCN(Cc2cccc(Cl)c2F)C(C(F)(F)F)C1 (centres unmarked) [Compound 1, 1-(3-chloro-2-fluorobenzyl)-4-((3-fluoro-6-(thiazol-2-ylamino)pyridin-2-yl)methyl)-2-(trifluoromethyl)piperidine-4-carboxylic acid]",significantly increased in vivo anti-tumor activity,29
0.57,78,49,,"COCC1CC(Cc2nc(Nc3nccs3)ccc2F)(C(=O)O)CCN1Cc1cccc(Cl)c1F (centres unmarked) [Compound 6, 1-(3-chloro-2-fluorobenzyl)-4-((3-fluoro-6-(thiazol-2-ylamino)pyridin-2-yl)methyl)-2-(methoxymethyl)piperidine-4-carboxylic acid]",significantly increased in vivo anti-tumor activity,30
0.64,113,590,,"Cc1cnc(Nc2ccc(F)c(CC3(C(=O)O)CCN(Cc4cccc(Cl)c4F)C(C(F)(F)F)C3)n2)s1 (centres unmarked) [Compound 13, 1-(3-chloro-2-fluorobenzyl)-4-((3-fluoro-6-(5-methylthiazol-2-ylamino)pyridin-2-yl)methyl)-2-(trifluoromethyl)piperidine-4-carboxylic acid]",,
0.62,1490,770,,"Cc1cc(Nc2ccc(F)c(CC3(C(=O)O)CCN(Cc4cccc(Cl)c4F)C(C(F)(F)F)C3)n2)n[nH]1 (centres unmarked) [Compound 15, 1-(3-chloro-2-fluorobenzyl)-4-((3-fluoro-6-((5-methyl-1H-pyrazol-3-yl)amino)pyridin-2-yl)methyl)-2-(trifluoromethyl)piperidine-4-carboxylic acid]",,
0.57,2470,58,,"COCC1CC(Cc2nc(Nc3ncc(C)s3)ccc2F)(C(=O)O)CCN1Cc1cccc(Cl)c1F (centres unmarked) [Compound 23, 1-(3-chloro-2-fluorobenzyl)-4-((3-fluoro-6-(5-methylthiazol-2-ylamino)pyridin-2-yl)methyl)-2-(methoxymethyl)piperidine-4-carboxylic acid]",,
